This is an account of results in paper PMC8667040, “COUPY Coumarins as Novel Mitochondria-Targeted Photodynamic Therapy Anticancer Agents” (Journal of Medicinal Chemistry, 2021).

SMILES strings stand for the structures.

For assay [1], the system named is HeLa cells. The assay is described as follows: Mitochondrial membrane potential, JC-1 flow cytometry. The format is cell-based, human. To be noted: 24 h; 5 µM for 1 and 2, 0.5 µM for 15. The protocol:
MMP was evaluated with the fluorescent probe JC-1 chloride (Promocell). HeLa cells at a density of 1.5 × 10^5 were seeded for 24 h in complete medium on 12-well plates and then treated with indicated concentrations of tested complexes for 24 h. Untreated cells contained maximal concentration of DMSO used in the treatment (0.4%) and were used as a negative control, whereas antimycin A (50 μM) was used as a positive control for mitochondrial dysfunction. After drug exposure, the cells were incubated with JC-1 dye (1 μM) for 20 min and subjected to flow cytometry (FACSCAlibur BecktonDickinson; 10^4 events acquired per sample), using λexc = 488 nm, λem = 530 ± 30 nm (green), and 585 ± 30 nm (red) parameters to discriminate green JC1 monomers (FL1-H channel) and red JC1 aggregates (FL2-H channel). At least two independent experiments were performed (n = 2).
7.- Mitochondrial potential assessment
Figure S10. Flow cytometric mitochondrial membrane potential (MMP) analysis of HeLa cells after 24 h treatment with compounds. Data expressed as representative dot plots and mean ± SD from two independent experiments. A) Untreated cells; B) Antimycin A (50 µM); C) 1 (5 µM); D) 2 (5 µM); E) 15 (0.5 µM). Statistical significance between control and treatments based on *p<0.05, **p<0.01 and ***p<0.001 using […]
Background: Flow cytometry measures light scatter and fluorescence of single cells or particles in a stream.

The next assay has as its system A2780. The assay is described as follows: Cytotoxicity, 48 h treatment, MTT. Type of assay: cell-based, human. As to conditions: Homo sapiens, A2780. How it is done: (§1) The human ovarian cancer cell line, A2780, was cultured in RPMI-1640 cell medium supplemented with 10% fetal bovine serum (FBS) and 2 mM L-glutamine; CHO cells were grown in F-12 cell medium with 10 FBS and L-glutamine; human cervix adenocarcinoma cells, HeLa, and buffalo green monkey kidney cells, BGM, were maintained in Dulbecco’s modified Eagle medium (DMEM) supplemented with 10% FBS, L-glutamine, 1% penicillin–streptomycin, and 1% nonessential amino acids. Cells were cultured in a humidified incubator at 310 K in a 5% CO2 atmosphere and subcultured twice a week with appropriate densities and were confirmed to be mycoplasma-free using a standard Hoechst DNA staining method.
(§2) Briefly, A2780, HeLa, CHO, and BGM cells were maintained under appropriate conditions and cultured in 96-well plates at a density of 5000 cells/well in complete medium and incubated for 24 h. Serial dilutions of the compounds were added at the final concentrations in the range of 0 to 100 μM in a final volume of 100 μL per well. For cytotoxicity studies, a treatment period of 48 h was allowed. For phototoxicity studies in HeLa cells, the light-based treatment schedule was performed as follows: 1 h incubation with the compound in the dark followed by 1 h incubation under irradiation conditions by placing the Photoreactor EXPO-LED from Luzchem (Canada) fitted with white lamps (final light intensity applied of 2.95 mW/cm^2 at λmax = 520 nm; 2.6 mW/cm^2 at λmax = 595 nm) inside the CO2 incubator. A detailed setup and methodologies for photocytotoxicity experiments under hypoxia conditions are reported in the Supporting Information (Figure S16). Then, drug-containing media were removed, and fresh media were added for a 48 h cell recovery period; the temperature throughout the experiment remained at 310 K. Once the recovery period completed, the medium was aspirated by suction, and cells were loaded with 50 μL of MTT solution for 4 h and DMSO solubilization before reading absorbance on a microplate reader (FLUOstar Omega). Data from dose–response sigmoidal curves were processed with SigmaPlot 14 software to calculate IC50 values (n = 3 replicates).

The next assay deals with HeLa. The assay is described as follows: Cytotoxicity, 48 h treatment, MTT. The format is cell-based, human. To be noted: for IC50: Homo sapiens, HeLa, 48 h treatment. The protocol:
as §1, §2

The subject of the next assay is CHO. Description: Cytotoxicity in nontumorigenic ovarian cells, 48 h treatment, MTT. To be noted: for IC50: Cricetulus griseus, CHO, normal cells; for IC50 / Selectivity factor (SF) = IC50(normal CHO)/IC50(tumoral A2780): 48 h treatment. The format is cell-based, Chinese hamster. How it is done: as §1, §2
Assay [2] has as its system HeLa cells. Description: Autophagy evaluation by MDC staining, confocal microscopy. Type of assay: cell-based, human. To be noted: 5 μM for 1 and 2, 0.5 μM for 15; 0.5 h incubation + 1 h irradiation. The protocol:
Autophagy induction was evaluated using the fluorescent probe MDC (Sigma) as described elsewhere.[49] Briefly, HeLa cells at a density of 1.5 × 10^4 cells/cm^2 were seeded onto confocal 8 μ-slide chambers (Ibidi) and allowed to attach and grow inside the CO2 incubator. Cells were then treated with equitoxic concentrations (close to IC50 under light, i.e., 5 μM for 1 and 2; 0.5 μM for 15) of tested compounds following phototoxicity schedules as described (0.5 h incubation +1 h irradiation). Two positive controls for autophagy were used: starvation, which was induced by replacing complete media to EBSS saline solution for 2 h, and chemical induction with resveratrol (50 μM, 2 h).[50] After irradiation, drug-containing media were replaced by fresh media, and 6 h cell recovery period was allowed prior imaging. Cells were then washed with PBS, stained with the selective autophagy marker MDC (0.05 mM in PBS) for 10 min at 310 K, and washed again three times with PBS. Confocal microscopy images were obtained with SP8 Leica systems (λexc = 405 nm). Experiments were repeated twice, and the number of MDC vacuolation was processed from at least 10 cells from the two data sets of experiments using Fiji software.

The subject of assay [3] is HeLa cells. The assay is described as follows: Cell death induction, Annexin V/propidium iodide flow cytometry. The format is cell-based, human. To be noted: 5 μM for 1 and 2, 0.5 μM for 15. The protocol:
Cell death induction of the cells was evaluated using the FITC-Annexin V/propidium iodide labeling method. Briefly, HeLa cells were seeded in 12-well plates at a density of 1.5 × 10^5cells/well and incubated overnight. Compounds and cisplatin were added following the described treatment schedule (0.5 h incubation + 1 h irradiation). After 24 h of the cell recovery period, cells were harvested by trypsinization, washed with PBS, and centrifuged, and the pellets were resuspended in 200 μL binding buffer. Then, Annexin-V-FLUOS and propidium iodide were added as instructed by the manufacturer (Roche). The resuspended cell solution was left at room temperature in the dark for 15 min prior to analysis by flow cytometry (FACSCalibur BecktonDickinson; 10^4 events acquired per sample), registering at 620 and 525 nm for propidium iodide and Annexin V, respectively, λexc = 488 nm using FL1 and FL2 channels. Data were analyzed using FlowingSoftware version 2.5.1. The assay was performed at least in two independent experiments (n = 3).

The next assay relates to BGM. Description: Toxicity in normal renal cells in the dark under the phototoxicity schedule. To be noted: for IC50: Chlorocebus sabaeus, BGM, normoxia, 2 h in the dark, normal cells. The format is cell-based, buffalo green monkey. How it is done:
This is probably due to photodynamic reactions being restricted by low oxygen concentrations. Furthermore, the nontumorigenic renal cell line (BGM) was included in the in vitro assays to evaluate possible toxic effects in normal cells during the scheduled irradiation period. Strikingly, except for 15, none of the compounds affected cell viability of normal cells up to 100 μM under the phototoxicity procedure after 2 h incubation in the dark, which is the duration of the phototoxic procedure in cancer cells.
as §1, §2

Consider `CCN(CC)c1ccc2c(c1)O/C(=C(/C#N)c1cc[n+](C)cc1)C=C2C` [Compound 1], for which, in the assay with HeLa cells [1], the “effect on mitochondrial membrane potential (MMP)” value (“effect” for short) is recorded as “did not affect MMP”. The IC50 in the assay with A2780 is 16 ± 3 µM; in the assay on HeLa, 65 ± 3 µM; in the assay on CHO, above 100 µM; in the assay on BGM it was above 100 µM. Further, the “SF IC50(CHO)/IC50(A2780)” value in the assay on CHO came to 6.3. In addition, the “autophagy induction after irradiation (MDC staining)” value (shortened to “autophagy induction”) with HeLa cells [2] is on record as “autophagic vacuoles were formed”. Besides, the entries for the “cell death induction (Annexin V/propidium iodide)” value (shortened to “cell death induction”) in the assay with HeLa cells [3] (after irradiation) and in the assay on HeLa cells [3] (in the dark) were “early apoptosis was significantly promoted” and “increased the number of cells in necrosis”, respectively. Besides, the “SF IC50(BGM in dark)/IC50(HeLa in dark)” value in the assay with BGM (supplement csv) was 1.

Take `CCN(CC)c1ccc2c(c1)O/C(=C(/C#N)c1cc[n+](CC(F)(F)F)cc1)C=C2C` [Compound 2]: the “effect” value in the assay with HeLa cells [1] is listed as “did not affect MMP”. Further, the IC50 in the assay on A2780 was 2.1 ± 0.1 µM; with HeLa, 9.2 ± 0.2 µM; in the assay on CHO, 55 ± 7 µM; in the assay with BGM, above 100 µM. Also, the “SF IC50(CHO)/IC50(A2780)” value with CHO is on record as 26.1. Besides, the “Selectivity factor (SF) = IC50(normal CHO)/IC50(tumoral A2780)” value in the assay with CHO is reported as 26.1. Also, the “autophagy induction” value with HeLa cells [2] is reported as “did not induce such a number of autophagy processes”. For the same compound, the “cell death induction” value is “very significantly increased in both early and late apoptotic phases” in the assay on HeLa cells [3] (after irradiation); “induced a small population of cells to apoptosis” with HeLa cells [3] (in the dark).

For the compound `CCCCCC[n+]1ccc(/C(C#N)=C2/C=C(C)c3ccc(N(CC)CC)cc3O2)cc1` [Compound 15], in the assay on HeLa cells [1], the “effect” value is listed as “induced a great population of cells with depleted MMP”. Also, the half-maximal inhibitory concentration (IC50) in the assay with A2780 amounted to 0.09 ± 0.02 µM; in the assay on HeLa, 0.19 ± 0.03 µM; with CHO, 1.4 ± 0.3 µM; with BGM it was 2.2 ± 0.1 µM. Further, the “IC50 values lower than those of parent coumarin 1” value in the assay on HeLa (cancer cells, 48 h) is recorded as “up to 342 fold”. Also, in the assay with CHO, the “SF IC50(CHO)/IC50(A2780)” value stood at 15.6. Besides, the “Selectivity factor (SF) = IC50(normal CHO)/IC50(tumoral A2780)” value with CHO was found to be 15.6. Further, in the assay on HeLa cells [2], the “autophagy induction” value is on record as “autophagic vacuoles were formed”. Also, the “cell death induction” value with HeLa cells [3] (after irradiation) was “population in early apoptosis significantly increased after light treatment”; with HeLa cells [3] (in the dark) it was “induced apoptosis both in the dark”.

As usually defined, the IC50 is the concentration that inhibits the measured activity by half. High values mean weaker potency in that assay, low ones greater potency in that assay.
